Laboratory results from patent US20050118226A1, “Methods for treating ACAT-related diseases” (priority 2003, published 2005).
Where a SMILES comes first, the peptide text is derived from it. [ ]: non-standard residue; d: D form. Sta = CC(C)C[C@H](N)[C@@H](O)CC(=O)O

Legend:
PSAPP mice = conditions: 250 mg/kg/day orally, 5 weeks; cited from earlier work
[1] = molecular target: T1, purified recombinant human BACE1 (Homo sapiens, UniProt P56817); test: In vitro fluorometric BACE1 activity assay; type: biochemical; conditions: increasing amounts of compound, 2 hours
T1 construct: purchased R&D systems
T1 sequence (P56817 46-501): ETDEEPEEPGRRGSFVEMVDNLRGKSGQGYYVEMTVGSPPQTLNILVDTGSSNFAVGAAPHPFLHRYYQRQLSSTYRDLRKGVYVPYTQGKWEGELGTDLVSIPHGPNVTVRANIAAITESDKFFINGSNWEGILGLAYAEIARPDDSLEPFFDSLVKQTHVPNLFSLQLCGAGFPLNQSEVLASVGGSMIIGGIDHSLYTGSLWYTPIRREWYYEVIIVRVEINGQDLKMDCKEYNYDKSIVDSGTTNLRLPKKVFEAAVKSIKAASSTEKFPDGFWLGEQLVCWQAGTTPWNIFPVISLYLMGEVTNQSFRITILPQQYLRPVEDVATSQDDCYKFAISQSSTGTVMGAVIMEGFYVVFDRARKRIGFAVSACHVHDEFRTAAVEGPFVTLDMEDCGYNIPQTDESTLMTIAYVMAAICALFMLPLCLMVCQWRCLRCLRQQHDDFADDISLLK
Protocol: A fluorometric β-secretase activity kit was used for detecting BACE1 activity in vitro. Reaction was done according to the manufacturer's instructions with slight modifications. Briefly, 1 μg of purified recombinant human BACE1 (R&D systems) was resuspended in 10 μl of 1× cell extraction buffer (R&D systems) and incubated with EDANS/DABCYL-[…] substrate peptide in the absence or presence of indicated account of CP-113,818 for 2 hours. Released EDANS fluorescence was measured by a fluorescent plate reader (Analyst AD, LJL Biosystems). As a negative control, a specific β-secretase inhibitor, GL-189 (Calbiochem) was added to one of the samples with the indicated concentration.

γ-secretase = test: In vitro generation of APP intracellular domain (AICD), γ-secretase activity assay on CHO cell membrane fractions; type: biochemical, Chinese hamster; conditions: CHO cell (overexpressing APP) membrane fractions, increasing amounts of compound
Protocol: Membrane preparation and in vitro generation of AICD were performed as described (Gu et al., 2001; Kim et al., 2002). P2 membrane fractions were prepared from CHO cells overexpressing wild type APP and resuspended in Buffer H (20 mM HEPES, 150 mM NaCl, 10% glycerol, 5 mM EDTA, pH 7.4) with protease inhibitors. In vitro cleavage experiments were performed by incubating the membrane fractions at 0° C. or 37° C. for 1 hour with the indicated amounts of CP-113,818. As a negative control, a specific γ-secretase inhibitor, L-685,458, was added to one of the samples.

CHO cells = conditions: 4 μM; cited from earlier work
Tg2576 mice = conditions: 12 month-old female Tg2576 mice, 3 weeks; cited from earlier work

## O=C(O)c1ccc(CCN2CCN(C/C=C/c3ccc(Cl)cc3)CC2)cc1 [BM15.766]
PSAPP mice
  reduction of amyloid load: 53%
  reduction of formic acid-extracted Aβ40: 58%
  reduction of formic acid-extracted Aβ42: 48%

## CC(C)C[C@H](NC(=O)[C@H](CC(N)=O)NC(=O)[C@@H](NC(=O)[C@@H](N)CCC(=O)O)C(C)C)[C@@H](O)CC(=O)N[C@H](C(=O)N[C@@H](C)C(=O)N[C@@H](CCC(=O)O)C(=O)N[C@@H](Cc1ccccc1)C(N)=O)C(C)C [GL-189] (H-EVN[Sta]VAEF-NH2)
[1]
  effect on BACE1 activity in vitro: significantly reduces BACE1 activity

## CC(C)C[C@H](NC(=O)[C@H](Cc1ccccc1)C[C@@H](O)[C@H](Cc1ccccc1)NC(=O)OC(C)(C)C)C(=O)N[C@@H](Cc1ccccc1)C(N)=O [L-685,458]
γ-secretase
  effect on γ-secretase activity (AICD generation) in vitro: inhibits APP intracellular domain (AICD) generation

## CC(C)c1cc(C(C)C)c(CC(=O)NS(=O)(=O)Oc2c(C(C)C)cccc2C(C)C)c(C(C)C)c1 [avasimibe]
CHO cells
  inhibition of Aβ generation: approximately 60%

## CC[C@H](C)C(=O)O[C@H]1C[C@@H](C)C=C2C=C[C@H](C)[C@H](CC[C@@H]3C[C@@H](O)CC(=O)O3)[C@H]21 [lovastatin]
Tg2576 mice
  Aβ pathology in female animals: increasing Aβ pathology
